Experimental findings from patent US6335350B1, “Acetamide and substituted acetamide-containing thiourea inhibitors of herpes viruses” (American Home Products Corporation, priority 1998, dated 2002) are described below.

The structures appear in SMILES notation. Converted amounts (≈) assume the structure as drawn.

For one test, the system named is HSV-1. The experiment in a line: HSV Antiviral (ELISA) Assay. Type of test: cell-based, herpes simplex virus type 1. To be noted: Human alphaherpesvirus 1, Vero, Vero cells, HSV-1; read-out: IC50 Ug/ml HSV. The protocol: Vero cells (ATCC #CCL-81) are plated on 96-well tissue culture plates at 3.5×10^4 cells per 100 μl tissue culture DMEM (Dulbecco's modified Eagle media) supplemented with 2% fetal bovine serum (FBS) in each well. After overnight incubation @ 37° C. (in 5% CO2) and 30 minutes prior to infection with HSV-1 (multiplicity of infection equal to 0.006), cells are either untreated, or treated with test compound (multiple concentrations) or reference standard drug control. After approximately 24 hours post-infection incubation @ 37° C. (in 5% CO2), cells are fixed for ELISA assay. The primary antibody is murine anti-HSV glycoprotein D monoclonal primary antibody and the secondary antibody is goat anti-mouse IgG linked to β-galactosidase. Thus the extent of viral replication is determined by assessing β-galactosidase activity by quantifying the generation of the 4-methyl umbelliferone fluorescent cleavage product after addition of the methyl umbelliferyl-β-D-galactoside (Sigma #M1633) substrate on a microfluorimeter (365 nm for excitation and 450 nm for emission). Antiviral activity (IC50) of the test compound is determined by comparing the flourescence obtained in absence of compound to that obtained in the presence of compound.
A general note: ELISA stands for enzyme-linked immunosorbent assay.

Another test relates to HCMV wild-type. As to the kind of experiment: HCMV yield assay. The class given is cell-based, human cytomegalovirus. To be noted: Human betaherpesvirus 5, Fibroblast, human foreskin fibroblasts; read-out: IC50 Ug/ml HCMV. The procedure: Yield assay. Monolayer cultures of human foreskin fibroblasts are infected with HCMV wild-type, typically at a multiplicity of infection equal to 0.2, in the presence of inhibitor compound (varying concentrations). At three days post-infection, total virus produced in these cultures (i.e. virus yield) is assessed by harvesting and titering the virus in 12-well plates of cultured human foreskin fibroblasts (done in the absence of inhibitor). Plaques are quantified at 2 weeks post-infection. An inhibitor of HCMV is identified by the reduction in titer of virus yield in the presence, compared to the titer in the absence of compound. In this assay, the relative anti-HCMV activity of an inhibitor is typically determined by calculating the IC50 or IC90 value, that is, the amount of compound required to reduce the virus yield by 50% or 90%, respectively. Table I describes IC50 data for compounds tested against HCMV.

The test system of another test is VZV strain Ellen. The experiment in a line: VZV Antiviral (ELISA) Assay. The class given is cell-based, varicella-zoster virus. To be noted: Human alphaherpesvirus 3, Fibroblast, human foreskin fibroblast cells; for IC50: read-out: IC50 Ug/ml VZV; for inhibition at 10 µg/mL: read-out: % inhibition 10 ug/ml VZV, 10 ug/ml. The protocol:
For the generation of stock VZV to be used in the assay, VZV strain Ellen (ATCC #VR-1367) is used to infect human foreskin fibroblast (HFF) cells at low multiplicity (less than 0.1) and incubated overnight at 37° C. in 5% CO2. After the overnight incubation, the mixture of uninfected and VZV-infected HFF infected cells are then harvested and added to each well of 96-well plates (3.5×10^4 cells in 100 μl DMEM supplemented with 2% FBS) which contain test compound or the reference standard drug control (in 100 μl DMEM supplemented with 2% FBS per well). These cells are incubated for three days at 37° C. in 5% CO2, then fixed for ELISA assay. The primary antibody is murine anti-VZV glycoprotein II monoclonal antibody (Applied Biosystems, Inc. #13-145-100) and the secondary antibody is goat anti-mouse IgG linked to β-galactosidase. Thus the extent of viral replication is determined by assessing β-galactosidase activity by quantifying the generation of the 4-methyl umbelliferone fluorescent cleavage product after addition of the methyl umbelliferyl-β-D-galactoside (Sigma #M1633) substrate on a microfluorimeter (365 nm for excitation and 450 nm for emission). Antiviral activity (IC50) of the test compound is determined by comparing the flourescence obtained in absence of compound to that obtained in the presence of compound.

Take `COc1cc(OCC(=O)OC(C)(C)C)c(NC(=S)Nc2ccc(NC(C)=O)cc2)cc1Cl` [Example 218, {2-[3-(4-Acetylamino-phenyl)-thioureido]-4-chloro-5-methoxy-phenoxy}-acetic acid tert-butyl ester]: the IC50 in the test on HSV-1 was 15 µg/mL (≈ 31.3 µM); in the test on HCMV wild-type it was more than 10 µg/mL; in the test with VZV strain Ellen, more than 10 µg/mL. For the same compound, the inhibition at 10 µg/mL with VZV strain Ellen worked out at 18%.

As for `COc1cc(O)c(Cl)cc1NC(=S)Nc1ccc(NC(C)=O)cc1` [Example 223, N-{4-[3-(5-Chloro-4-hydroxy-2-methoxy-phenyl)-thioureido]-phenyl}-acetamide], the IC50 was 14 µg/mL (≈ 38.3 µM) in the test on HSV-1, more than 50 µg/mL in the test on HCMV wild-type and more than 10 µg/mL in the test with VZV strain Ellen. For the same compound, in the test with VZV strain Ellen, the inhibition at 10 µg/mL was found to be 24%.

With `COc1cc(N2CCOCC2)c(NC(=S)Nc2ccc(NC(C)=O)cc2)cc1Cl` [Example 226, N-{4-[3-(5-Chloro-4-methoxy-2-morpholin-4-yl-phenyl)-thioureido]-phenyl}-Acetamide], the figures for the IC50 with HSV-1, in the test on HCMV wild-type and in the test with VZV strain Ellen were more than 50 µg/mL, more than 50 µg/mL and more than 10 µg/mL, respectively. Besides, in the test on VZV strain Ellen, the inhibition at 10 µg/mL was found to be 35%.

As to `COc1cc(N(C)C)c(NC(=S)Nc2ccc(NC(C)=O)cc2)cc1Cl` [Example 227, N-{4-[3-(5-Chloro-2-dimethylamino-4-methoxy-phenyl)-thioureido]-phenyl}-acetamide], the IC50 is more than 50 µg/mL with HSV-1, more than 50 µg/mL in the test with HCMV wild-type and more than 10 µg/mL in the test on VZV strain Ellen. For the same compound, in the test with VZV strain Ellen, the inhibition at 10 µg/mL worked out at 32%.

For `COc1cc(N2CCCC2)c(NC(=S)Nc2ccc(NC(C)=O)cc2)cc1Cl` [Example 228, N-{4-[3-(5-Chloro-4-methoxy-2-pyrrolidin-1-yl-phenyl)-thioureido]-phenyl}-acetamide], the figures for the IC50 in the test with HSV-1, in the test with HCMV wild-type and in the test on VZV strain Ellen were 3 µg/mL (≈ 7.16 µM), more than 10 µg/mL and more than 10 µg/mL, respectively. In addition, in the test on VZV strain Ellen, the inhibition at 10 µg/mL turned out to be 35%.

Regarding `COc1cc(N2CCCCC2)c(NC(=S)Nc2ccc(NC(C)=O)cc2)cc1Cl` [Example 229, N-{4-[3-(5-Chloro-4-methoxy-2-piperidin-1-yl-phenyl)-thioureido]-phenyl}-acetamide], the results for the IC50 in the test on HSV-1, in the test on HCMV wild-type and in the test with VZV strain Ellen were 15 µg/mL (≈ 34.6 µM), 7 µg/mL (≈ 16.2 µM) and more than 10 µg/mL, respectively. Moreover, in the test with VZV strain Ellen, the inhibition at 10 µg/mL came to 35%.

As for `CC(=O)Nc1ccc(NC(=S)Nc2ccc(N3CCCCC3)c(Cl)c2)cc1` [Example 239, N-{4-[3-(3-Chloro-4-piperidin-1-yl-phenyl)-thioureido]-phenyl}-acetamide], the results for the IC50 with HSV-1, in the test on HCMV wild-type and in the test with VZV strain Ellen were 25 µg/mL (≈ 62 µM), more than 10 µg/mL and more than 10 µg/mL, respectively. Moreover, the inhibition at 10 µg/mL in the test on VZV strain Ellen amounted to 33%.

For `CC(=O)Nc1ccc(NC(=S)Nc2ccc(N(C)C)c(Cl)c2)cc1` [Example 240, N-{4-[3-(3-Chloro-4-dimethylamino-phenyl)-thioureido]-phenyl}-acetamide], the IC50 in the test on HSV-1 is more than 50 µg/mL; in the test on HCMV wild-type it was 1.5 µg/mL (≈ 4.13 µM); in the test on VZV strain Ellen, more than 10 µg/mL. In addition, the inhibition at 10 µg/mL in the test with VZV strain Ellen was determined as 5%.

On to `CC(=O)Nc1ccc(NC(=S)Nc2ccc(NCc3ccccc3)c(Cl)c2)cc1` [Example 241, N-{4-[3-(4-Benzylamino-3-chloro-phenyl)-thioureido]-phenyl}-acetamide], for which the IC50 in the test with HSV-1 was 10 µg/mL (≈ 23.5 µM); in the test with HCMV wild-type it was 2 µg/mL (≈ 4.71 µM); with VZV strain Ellen it was more than 10 µg/mL. Further, in the test with VZV strain Ellen, the inhibition at 10 µg/mL is 24%.

Take `CC(=O)Nc1ccc(NC(=S)Nc2ccc(N3CCCC3)c(Cl)c2)cc1` [Example 242, N-{4-[3-(3-Chloro-4-pyrrolidin-1-yl-phenyl)-thioureido]-phenyl}-acetamide]: the IC50 is 50 µg/mL (≈ 129 µM) in the test with HSV-1, more than 10 µg/mL in the test with HCMV wild-type and more than 10 µg/mL in the test on VZV strain Ellen. Also, the inhibition at 10 µg/mL in the test with VZV strain Ellen was determined as 20%.

`CC(=O)Nc1ccc(NC(=S)Nc2ccc(N3CCN(C)CC3)c(Cl)c2)cc1` [Example 243, N-(4-{3-[3-Chloro-4-(4-methyl-piperazin-1-yl)-phenyl]-thioureido}-phenyl)-acetamide]: the IC50 in the test with HSV-1 is more than 50 µg/mL; in the test with HCMV wild-type, 40 µg/mL (≈ 95.7 µM); in the test on VZV strain Ellen it was more than 10 µg/mL. Moreover, in the test with VZV strain Ellen, the inhibition at 10 µg/mL came out at 4%.
